Test results reported in patent US10259810B2, “N-sulfonylated pyrazolo[3,4-b]pyridin-6-carboxamides and method of use” (AbbVie S.à.r.l., priority 2015, dated 2019).

Tests used:
ΔF508-CFTR [1] = target: T1, ΔF508-CFTR (Homo sapiens, UniProt P13569, DEL508-508); assay: CFTR cell surface levels using HRP-tagged ΔF508-CFTR expressing CFBE cells, intrinsic corrector capacity; assay type: cell-based; parameters: % Activation: concentration or dose not given beside the values; settings: HRP-tagged ΔF508-CFTR expressing CFBE41o- cells, compound alone (intrinsic corrector capacity), 20 hours at 33° C.; for EC50: read-out: EC50
T1 construct: host or cells: CFBE41o-, doxycycline-inducible
T1 sequence (P13569 with tags, fused parts or gaps DEL508-508): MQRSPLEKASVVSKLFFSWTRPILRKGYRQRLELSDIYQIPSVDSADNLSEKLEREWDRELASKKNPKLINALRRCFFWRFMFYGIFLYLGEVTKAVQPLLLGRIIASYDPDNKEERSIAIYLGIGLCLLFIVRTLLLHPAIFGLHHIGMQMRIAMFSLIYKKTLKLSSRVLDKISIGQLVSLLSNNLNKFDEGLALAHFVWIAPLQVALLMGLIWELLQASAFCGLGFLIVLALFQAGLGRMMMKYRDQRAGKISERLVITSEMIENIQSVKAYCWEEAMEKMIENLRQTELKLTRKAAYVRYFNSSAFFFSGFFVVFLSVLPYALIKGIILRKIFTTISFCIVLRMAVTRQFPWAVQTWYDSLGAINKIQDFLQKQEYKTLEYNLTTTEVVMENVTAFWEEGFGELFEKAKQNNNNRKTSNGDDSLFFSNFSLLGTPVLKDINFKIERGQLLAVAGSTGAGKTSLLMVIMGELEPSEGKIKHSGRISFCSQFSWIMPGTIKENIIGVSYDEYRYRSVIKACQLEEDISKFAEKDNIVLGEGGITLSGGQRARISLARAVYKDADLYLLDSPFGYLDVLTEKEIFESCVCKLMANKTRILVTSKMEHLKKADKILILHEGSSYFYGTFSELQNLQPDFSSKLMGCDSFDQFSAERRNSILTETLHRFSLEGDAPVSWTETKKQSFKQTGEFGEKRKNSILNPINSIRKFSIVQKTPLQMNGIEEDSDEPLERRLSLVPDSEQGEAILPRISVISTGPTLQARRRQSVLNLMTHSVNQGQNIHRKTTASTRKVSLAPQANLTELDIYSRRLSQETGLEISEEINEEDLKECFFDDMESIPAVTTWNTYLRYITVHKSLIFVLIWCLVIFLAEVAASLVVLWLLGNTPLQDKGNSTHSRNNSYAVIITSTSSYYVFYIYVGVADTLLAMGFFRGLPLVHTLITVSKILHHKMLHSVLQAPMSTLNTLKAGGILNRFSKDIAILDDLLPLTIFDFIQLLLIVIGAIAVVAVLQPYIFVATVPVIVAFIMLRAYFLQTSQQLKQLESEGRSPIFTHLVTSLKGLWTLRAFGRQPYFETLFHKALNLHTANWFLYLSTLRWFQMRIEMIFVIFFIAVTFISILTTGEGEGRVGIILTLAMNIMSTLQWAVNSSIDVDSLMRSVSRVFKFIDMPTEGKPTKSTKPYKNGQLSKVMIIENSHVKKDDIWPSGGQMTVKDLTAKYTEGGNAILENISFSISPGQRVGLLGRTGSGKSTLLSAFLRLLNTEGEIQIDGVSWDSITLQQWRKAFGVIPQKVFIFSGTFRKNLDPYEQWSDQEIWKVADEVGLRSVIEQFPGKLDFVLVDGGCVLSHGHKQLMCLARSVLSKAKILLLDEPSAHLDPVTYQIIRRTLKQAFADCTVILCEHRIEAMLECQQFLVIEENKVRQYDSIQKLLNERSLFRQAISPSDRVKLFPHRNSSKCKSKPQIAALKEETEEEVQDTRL
How it was run: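 Surface ΔF508-CFTR was measured as HRP chemiluminescence from an extracellular-loop-4 tag, expressed as percent activity between DMSO and a […] corrector control.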

ΔF508-CFTR [2] = target: T1, ΔF508-CFTR; assay: CFTR cell surface levels using HRP-tagged ΔF508-CFTR expressing CFBE cells, in the presence of a co-corrector; assay type: cell-based; settings: HRP-tagged ΔF508-CFTR CFBE cells, in the presence of 3 μM co-corrector; for EC50: read-out: EC50
How it was run: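 Chemiluminescent read-out of surface HRP (15 min, dark) after PBS washes. Activity is normalized as 100×(sample−DMSO)/(3 μM co-corrector alone−DMSO).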

Structure (SMILES) | % Activation (ΔF508-CFTR [1]) [%] | EC50 (ΔF508-CFTR [1]) [nM] | % Activation (ΔF508-CFTR [2]) [%] | EC50 (ΔF508-CFTR [2]) [nM]
CC(C)COC1CCN(c2cc(C(=O)NS(C)(=O)=O)nc3c2c(C(C)C)nn3-c2ccc(F)cc2)CC1 [Compound 175, 1-(4-fluorophenyl)-N-(methanesulfonyl)-4-[4-(2-methylpropoxy)piperidin-1-yl]-3-(propan-2-yl)-1H-pyrazolo[3,4-b]pyridine-6-carboxamide] | 270.5 | 337 | 461.1 | 200
COC1CCN(c2cc(C(=O)NS(=O)(=O)CC(F)(F)F)nc3c2c(C2CCC2)nn3-c2ccccc2)CC1 [Compound 176, 3-cyclobutyl-4-(4-methoxypiperidin-1-yl)-1-phenyl-N-(2,2,2-trifluoroethanesulfonyl)-1H-pyrazolo[3,4-b]pyridine-6-carboxamide] | 190.4 | 337 | 390.43 | 209
CC(C)c1nn(-c2ccc(F)cc2)c2nc(C(=O)NS(C)(=O)=O)cc(N3CCCC(C(F)F)C3)c12 (stereo not drawn) [Compound 178, 4-[3-(difluoromethyl)piperidin-1-yl]-1-(4-fluorophenyl)-N-(methanesulfonyl)-3-(propan-2-yl)-1H-pyrazolo[3,4-b]pyridine-6-carboxamide] | 202.8 | 347 | 381.73 | 232
CC(C)c1nn(-c2ccc(F)cc2)c2nc(C(=O)NS(C)(=O)=O)cc(N3CC4(CCCOC4)C3)c12 [Compound 179, 1-(4-fluorophenyl)-N-(methanesulfonyl)-4-(6-oxa-2-azaspiro[3.5]nonan-2-yl)-3-(propan-2-yl)-1H-pyrazolo[3,4-b]pyridine-6-carboxamide] | 89.165 | 879 | 248.85 | 406
CC(C)c1nn(-c2ccc(F)cc2)c2nc(C(=O)NS(C)(=O)=O)cc(N3CCC4(CCCO4)CC3)c12 [Compound 180, 1-(4-fluorophenyl)-N-(methanesulfonyl)-4-(1-oxa-8-azaspiro[4.5]decan-8-yl)-3-(propan-2-yl)-1H-pyrazolo[3,4-b]pyridine-6-carboxamide] | 129.5 | 570 | 290.53 | 300
CS(=O)(=O)NC(=O)c1cc(OCC2CCCCC2)c2c(C3CCC3)nn(-c3ccccc3)c2n1 [Compound 181, 3-cyclobutyl-4-(cyclohexylmethoxy)-N-(methanesulfonyl)-1-phenyl-1H-pyrazolo[3,4-b]pyridine-6-carboxamide] | 137.73 | 398 | 357.93 | 435
COCCC1CCN(c2cc(C(=O)NS(C)(=O)=O)nc3c2c(C2CCC2)nn3-c2ccccc2)CC1 [Compound 183, 3-cyclobutyl-N-(methanesulfonyl)-4-[4-(2-methoxyethyl)piperidin-1-yl]-1-phenyl-1H-pyrazolo[3,4-b]pyridine-6-carboxamide] | 302 | 389 | 498.57 | 214
CS(=O)(=O)NC(=O)c1cc(N2CC3(CCCC3)C2)c2c(C3CCC3)nn(-c3ccccc3)c2n1 [Compound 184, 4-(2-azaspiro[3.4]octan-2-yl)-3-cyclobutyl-N-(methanesulfonyl)-1-phenyl-1H-pyrazolo[3,4-b]pyridine-6-carboxamide] | 95.405 | 719 | 282.7 | 574
CS(=O)(=O)NC(=O)c1cc(N2CC3CC3C2)c2c(C3CCC3)nn(-c3ccccc3)c2n1 (stereo not drawn) [Compound 186, 4-(3-azabicyclo[3.1.0]hexan-3-yl)-3-cyclobutyl-N-(methanesulfonyl)-1-phenyl-1H-pyrazolo[3,4-b]pyridine-6-carboxamide] | 209.57 | 616 | 381.87 | 531
CS(=O)(=O)NC(=O)c1cc(-c2ccc(N3CCC(C#N)CC3)nc2)c2c(C3CCC3)nn(-c3ccnc(N4CCCC4)c3)c2n1 [Compound 189, 4-[6-(4-cyanopiperidin-1-yl)pyridin-3-yl]-3-cyclobutyl-N-(methanesulfonyl)-1-[2-(pyrrolidin-1-yl)pyridin-4-yl]-1H-pyrazolo[3,4-b]pyridine-6-carboxamide] | 236.2 | 421 | 409.6 | 236
CS(=O)(=O)NC(=O)c1cc(N2CC3(CCCCC3)C2)c2c(C3CCC3)nn(-c3ccccc3)c2n1 [Compound 192, 4-(2-azaspiro[3.5]nonan-2-yl)-3-cyclobutyl-N-(methanesulfonyl)-1-phenyl-1H-pyrazolo[3,4-b]pyridine-6-carboxamide] | 81.49 | 1140 | 254.6 | 866
CO[C@H]1C[C@@H](c2nn(-c3ccccc3)c3nc(C(=O)NS(C)(=O)=O)cc(-c4ccc(N5CCC(C#N)CC5)nc4)c32)C1 [Compound 194, 4-[6-(4-cyanopiperidin-1-yl)pyridin-3-yl]-N-(methanesulfonyl)-3-(cis-3-methoxycyclobutyl)-1-phenyl-1H-pyrazolo[3,4-b]pyridine-6-carboxamide] | 213.75 | 745 | 427.45 | 371
CS(=O)(=O)NC(=O)c1cc(-c2ccc(N3CCC(C#N)CC3)nc2)c2c(C3CC(F)(F)C3)nn(-c3ccccc3)c2n1 [Compound 195, 4-[6-(4-cyanopiperidin-1-yl)pyridin-3-yl]-3-(3,3-difluorocyclobutyl)-N-(methanesulfonyl)-1-phenyl-1H-pyrazolo[3,4-b]pyridine-6-carboxamide] | 225.2 | 370 | 387.47 | 192
CC1(C)CC(c2nn(-c3ccccc3)c3nc(C(=O)NS(C)(=O)=O)cc(-c4ccc(N5CCC(C#N)CC5)nc4)c23)C1 [Compound 196, 4-[6-(4-cyanopiperidin-1-yl)pyridin-3-yl]-3-(3,3-dimethylcyclobutyl)-N-(methanesulfonyl)-1-phenyl-1H-pyrazolo[3,4-b]pyridine-6-carboxamide] | 188.47 | 339 | 387.1 | 231
CS(=O)(=O)NC(=O)c1cc(-c2ccc(N3CCC(C#N)CC3)nc2)c2c(C3CC(F)C3)nn(-c3ccccc3)c2n1 (stereo not drawn) [Compound 197, 4-[6-(4-cyanopiperidin-1-yl)pyridin-3-yl]-3-(3-fluorocyclobutyl)-N-(methanesulfonyl)-1-phenyl-1H-pyrazolo[3,4-b]pyridine-6-carboxamide] | 220.2 | 397 | 390.8 | 194
CS(=O)(=O)NC(=O)c1cc(N2CCC3(C2)CC3(F)F)c2c(C3CCC3)nn(-c3ccccc3)c2n1 (stereo not drawn) [Compound 202, 3-cyclobutyl-4-(1,1-difluoro-5-azaspiro[2.4]heptan-5-yl)-N-(methanesulfonyl)-1-phenyl-1H-pyrazolo[3,4-b]pyridine-6-carboxamide] | 147.23 | 595 | 299.4 | 255
CS(=O)(=O)NC(=O)c1cc(N2CC3(CCCCO3)C2)c2c(C3CCC3)nn(-c3ccccc3)c2n1 [Compound 203, 3-cyclobutyl-N-(methanesulfonyl)-4-(5-oxa-2-azaspiro[3.5]nonan-2-yl)-1-phenyl-1H-pyrazolo[3,4-b]pyridine-6-carboxamide] | 82.59 | 1020 | 224.63 | 328
CS(=O)(=O)NC(=O)c1cc(N2CC3(CCOCC3)C2)c2c(C3CCC3)nn(-c3ccccc3)c2n1 [Compound 204, 3-cyclobutyl-N-(methanesulfonyl)-4-(7-oxa-2-azaspiro[3.5]nonan-2-yl)-1-phenyl-1H-pyrazolo[3,4-b]pyridine-6-carboxamide] | 117.6 | 978 | 288.6 | 490
CS(=O)(=O)NC(=O)c1cc(N2CCCC3(CC3)C2)c2c(C3CCC3)nn(-c3ccccc3)c2n1 [Compound 205, 4-(5-azaspiro[2.5]octan-5-yl)-3-cyclobutyl-N-(methanesulfonyl)-1-phenyl-1H-pyrazolo[3,4-b]pyridine-6-carboxamide] | 208.5 | 956 | 416.4 | 856
COCCN(C)c1cc(C(=O)NS(C)(=O)=O)nc2c1c(C1CCC1)nn2-c1ccccc1 [Compound 206, 3-cyclobutyl-N-(methanesulfonyl)-4-[(2-methoxyethyl)(methyl)amino]-1-phenyl-1H-pyrazolo[3,4-b]pyridine-6-carboxamide] | 169.03 | 1400 | 387.03 | 890
COC1CCN(c2cc(C(=O)NS(=O)(=O)C3CCN(C(=O)OCc4ccccc4)CC3)nc3c2c(C2CCC2)nn3-c2ccccc2)CC1 [Compound 208, benzyl 4-{[3-cyclobutyl-4-(4-methoxypiperidin-1-yl)-1-phenyl-1H-pyrazolo[3,4-b]pyridine-6-carbonyl]sulfamoyl}piperidine-1-carboxylate] | 190.55 | 402 | 419.15 | 364
